From ChEMBL document CHEMBL2380218, “A facile chemo-, regio- and stereoselective synthesis and cholinesterase inhibitory activity of spirooxindole-pyrrolizine-piperidine hybrids” (Bioorg Med Chem Lett, 2013)

What was measured:
Cholinesterase = Cholinesterase (Equus caballus, UniProt P81908); experiment: Inhibition of equine serum BuChE using S-butyrylthiocholine chloride as substrate incubated for 15 mins prior to substrate addition measured after 30 mins by Ellman's method
Acetylcholinesterase = Acetylcholinesterase (Homo sapiens, UniProt P22303); experiment: Inhibition of AChE (unknown origin) using acetylthiocholine iodide as substrate incubated for 15 mins prior to substrate addition measured after 30 mins by Ellman's method
Chain of Acetylcholinesterase (P22303 whole entry): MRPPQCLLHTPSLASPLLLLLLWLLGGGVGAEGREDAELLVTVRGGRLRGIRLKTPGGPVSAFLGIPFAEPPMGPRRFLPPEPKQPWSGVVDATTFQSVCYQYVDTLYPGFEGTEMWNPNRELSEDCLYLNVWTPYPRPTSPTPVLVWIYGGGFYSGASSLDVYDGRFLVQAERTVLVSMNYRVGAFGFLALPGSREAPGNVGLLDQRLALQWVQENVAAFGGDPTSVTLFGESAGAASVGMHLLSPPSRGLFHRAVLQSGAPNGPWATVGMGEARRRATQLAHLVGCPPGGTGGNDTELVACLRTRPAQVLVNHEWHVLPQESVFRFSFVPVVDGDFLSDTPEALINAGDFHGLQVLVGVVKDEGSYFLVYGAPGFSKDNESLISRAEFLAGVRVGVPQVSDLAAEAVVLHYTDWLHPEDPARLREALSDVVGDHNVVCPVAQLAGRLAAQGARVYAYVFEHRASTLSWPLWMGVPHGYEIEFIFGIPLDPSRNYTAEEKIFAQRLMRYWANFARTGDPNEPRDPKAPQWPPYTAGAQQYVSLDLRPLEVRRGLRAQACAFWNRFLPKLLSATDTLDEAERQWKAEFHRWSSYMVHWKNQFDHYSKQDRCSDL

Chain of Cholinesterase (P81908 whole entry): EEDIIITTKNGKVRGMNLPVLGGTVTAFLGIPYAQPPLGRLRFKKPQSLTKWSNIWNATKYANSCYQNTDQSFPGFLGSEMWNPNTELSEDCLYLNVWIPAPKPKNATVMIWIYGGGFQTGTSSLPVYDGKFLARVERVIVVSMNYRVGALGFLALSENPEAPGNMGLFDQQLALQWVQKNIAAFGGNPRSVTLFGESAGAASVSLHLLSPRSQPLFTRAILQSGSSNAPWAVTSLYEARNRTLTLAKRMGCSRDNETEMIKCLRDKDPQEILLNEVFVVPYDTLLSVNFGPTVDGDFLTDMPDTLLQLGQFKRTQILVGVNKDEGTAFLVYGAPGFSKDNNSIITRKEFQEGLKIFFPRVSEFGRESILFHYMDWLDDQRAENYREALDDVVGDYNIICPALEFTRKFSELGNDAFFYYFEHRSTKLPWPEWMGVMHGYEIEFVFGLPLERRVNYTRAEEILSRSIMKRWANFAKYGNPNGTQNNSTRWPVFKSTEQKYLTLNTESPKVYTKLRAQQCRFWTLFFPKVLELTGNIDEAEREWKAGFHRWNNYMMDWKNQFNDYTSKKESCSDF

O=C1/C(=C/c2cccc3ccccc23)CN(C(=O)[C@H]2C[C@H]3CCCN3[C@]23C(=O)Nc2cc(Cl)ccc23)C/C1=C\c1cccc2ccccc12
IC50 (Cholinesterase): 9.65 µM
IC50 (Acetylcholinesterase): 5.81 µM

O=C1/C(=C/c2ccccc2)CN(C(=O)[C@H]2C[C@H]3CCCN3[C@]23C(=O)Nc2cc(Cl)ccc23)C/C1=C\c1ccccc1
IC50 (Cholinesterase): 15.4 µM
IC50 (Acetylcholinesterase): 15.7 µM

Cc1ccccc1/C=C1\CN(C(=O)[C@H]2C[C@H]3CCCN3[C@]23C(=O)Nc2cc(Cl)ccc23)C/C(=C\c2ccccc2C)C1=O
IC50 (Cholinesterase): 15.1 µM
IC50 (Acetylcholinesterase): 11.2 µM

COc1ccccc1/C=C1\CN(C(=O)[C@H]2C[C@H]3CCCN3[C@]23C(=O)Nc2cc(Cl)ccc23)C/C(=C\c2ccccc2OC)C1=O
IC50 (Cholinesterase): 7.82 µM
IC50 (Acetylcholinesterase): 14.5 µM

O=C1/C(=C/c2ccccc2Cl)CN(C(=O)[C@H]2C[C@H]3CCCN3[C@]23C(=O)Nc2cc(Cl)ccc23)C/C1=C\c1ccccc1Cl
IC50 (Cholinesterase): 17.4 µM
IC50 (Acetylcholinesterase): 5.08 µM

O=C1/C(=C/c2ccccc2F)CN(C(=O)[C@H]2C[C@H]3CCCN3[C@]23C(=O)Nc2cc(Cl)ccc23)C/C1=C\c1ccccc1F
IC50 (Cholinesterase): 3.13 µM
IC50 (Acetylcholinesterase): 29.5 µM

O=C1/C(=C/c2cccc([N+](=O)[O-])c2)CN(C(=O)[C@H]2C[C@H]3CCCN3[C@]23C(=O)Nc2cc(Cl)ccc23)C/C1=C\c1cccc([N+](=O)[O-])c1
IC50 (Cholinesterase): 17.2 µM
IC50 (Acetylcholinesterase): 4.28 µM

O=C1/C(=C/c2ccc(Cl)cc2Cl)CN(C(=O)[C@H]2C[C@H]3CCCN3[C@]23C(=O)Nc2cc(Cl)ccc23)C/C1=C\c1ccc(Cl)cc1Cl
IC50 (Cholinesterase): 20.1 µM
IC50 (Acetylcholinesterase): 3.33 µM

Cc1ccc(/C=C2\CN(C(=O)[C@H]3C[C@H]4CCCN4[C@]34C(=O)Nc3cc(Cl)ccc34)C/C(=C\c3ccc(C)cc3)C2=O)cc1
IC50 (Cholinesterase): 22.2 µM
IC50 (Acetylcholinesterase): 7.6 µM

O=C1/C(=C/c2ccc(Cl)cc2)CN(C(=O)[C@H]2C[C@H]3CCCN3[C@]23C(=O)Nc2cc(Cl)ccc23)C/C1=C\c1ccc(Cl)cc1
IC50 (Cholinesterase): 28.2 µM
IC50 (Acetylcholinesterase): 3.36 µM

O=C1/C(=C/c2ccc(F)cc2)CN(C(=O)[C@H]2C[C@H]3CCCN3[C@]23C(=O)Nc2cc(Cl)ccc23)C/C1=C\c1ccc(F)cc1
IC50 (Cholinesterase): 3.64 µM
IC50 (Acetylcholinesterase): 22.3 µM
